Test [1] relates to T1, Heat shock protein 75 kDa, mitochondrial (Homo sapiens), Q12931 [E115K,R114E,E403K].
T1 sequence (whole entry): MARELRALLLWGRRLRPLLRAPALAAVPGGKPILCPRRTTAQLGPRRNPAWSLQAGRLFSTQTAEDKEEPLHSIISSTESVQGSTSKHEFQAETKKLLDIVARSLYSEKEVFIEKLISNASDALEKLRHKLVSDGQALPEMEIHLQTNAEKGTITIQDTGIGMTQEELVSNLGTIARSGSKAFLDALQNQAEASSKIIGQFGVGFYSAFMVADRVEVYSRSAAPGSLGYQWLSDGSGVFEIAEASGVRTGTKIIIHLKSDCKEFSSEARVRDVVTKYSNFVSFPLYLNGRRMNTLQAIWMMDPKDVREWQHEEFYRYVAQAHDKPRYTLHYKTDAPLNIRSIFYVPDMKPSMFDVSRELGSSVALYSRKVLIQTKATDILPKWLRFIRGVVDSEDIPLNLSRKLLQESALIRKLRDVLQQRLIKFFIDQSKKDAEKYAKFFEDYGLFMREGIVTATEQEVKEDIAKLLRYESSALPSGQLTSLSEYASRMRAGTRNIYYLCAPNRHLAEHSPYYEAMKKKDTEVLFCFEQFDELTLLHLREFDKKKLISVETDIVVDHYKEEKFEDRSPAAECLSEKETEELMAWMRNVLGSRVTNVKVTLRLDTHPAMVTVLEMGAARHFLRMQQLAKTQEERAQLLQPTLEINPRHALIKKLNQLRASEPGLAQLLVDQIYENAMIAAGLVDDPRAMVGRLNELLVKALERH
As to the kind of experiment: Stimulation of recombinant […] human TRAP1 E115K/R114E/E403K mutant ATPase activity expressed in Escherichia coli BL21 (DE3) up to 20 uM preincubated for 0.5 hrs followed by ATP addition and measured after 3 hrs by PiColorLock Gold reagent based colorimetric assay.

A further test has as its system LN-229. Briefly: Cytotoxicity against human LN229 cells assessed as reduction in cell viability up to 3 uM measured after 24 hrs by MTT assay. It counts as functional, cell-based.
In the next test the test system is NCI-H460. As to the kind of experiment: Cytotoxicity against human NCI-H460 cells assessed as reduction in cell viability up to 3 uM measured after 24 hrs by MTT assay. Type of test: functional, cell-based. (Tetrazolium assays rely on reduction of a dye to a coloured formazan, in cell work by metabolically active cells.)
For test [2], the system named is Mus musculus. As to the kind of experiment: In vivo inhibition of TRAP1 in nude mouse xenografted with human NCI-H460 cells assessed as increase in SIRT3 degradation at 5 mg/kg, ip administered daily by Western blot analysis. It counts as functional, organism-based. (Xenograft models place foreign cells or tissue in a host animal.)
Test [3] relates to Mus musculus. Briefly: In vivo inhibition of TRAP1 in nude mouse xenografted with human NCI-H460 cells assessed as increase in SDHB degradation at 5 mg/kg, ip administered daily by Western blot analysis. Type of test: functional, organism-based.
Test [4] has as its system T2, Heat shock protein 75 kDa, mitochondrial (Homo sapiens), Q12931 [R114E].
T2 sequence (whole entry): T1 sequence (whole entry) with K115E, K403E
As to the kind of experiment: Stimulation of recombinant […] human TRAP1 R114E mutant ATPase activity expressed in Escherichia coli BL21 (DE3) up to 20 uM preincubated for 0.5 hrs followed by ATP addition and measured after 3 hrs by PiColorLock Gold reagent based colorimetric assay.

Test [5] concerns the target T3, Heat shock protein 75 kDa, mitochondrial (Homo sapiens) (UniProt Q12931).
T3 sequence (whole entry): T1 sequence (whole entry) with E114R, K115E, K403E
Briefly: Binding affinity to recombinant wild-type human TRAP1 ATP site expressed in Escherichia coli BL21 (DE3) assessed as induction of conformational change by measuring closed state population of TRAP1 at 10 uM measured after 30 mins in absence of ATP by TEM analysis (reference value: 52.1 +/- 0.6 %).

For test [6], the target named is T3, Heat shock protein 75 kDa, mitochondrial (Homo sapiens). Briefly: Inhibition of TRAP1 in human PC3 cells assessed as increase in AMPK phosphorylation at 5 uM measured after 2 to 12 hrs by Western blot analysis. Type of test: cell-based. Particulars: PC-3.
Test [7] shares this target. As to the kind of experiment: Inhibition of TRAP1 in human PC3 cells assessed as reduction in SIRT3 expression at 5 uM measured after 2 to 12 hrs by Western blot analysis. Particulars: PC-3. It counts as cell-based. A general note: A western blot detects proteins with antibodies after separation by electrophoresis.

Numbering of substitutions follows the chain as printed. Calls of active or inactive are those of the source. The calls are words filed in the database; no cut-off is given here.

Take `Nc1ncnc2c1nc(Sc1cc3c(cc1I)OCO3)n2CCCCCCCCCC[P+](c1ccccc1)(c1ccccc1)c1ccccc1`: the result in [1] was inactive. The result (in the test on LN-229; in the test on NCI-H460; in test [4]) was Active. Further, the inhibition entry (with Mus musculus [2]; in the test with Mus musculus [3]; in test [6]; in [7]) was “Active” in each case. Besides, the Activity in test [5] is 72.5%.

Values taken from ChEMBL document CHEMBL4602687, “Dual Binding to Orthosteric and Allosteric Sites Enhances the Anticancer Activity of a TRAP1-Targeting Drug” (J Med Chem, 2020).
